# PMC5413048, “Palmitic acid is a toll-like receptor 4 ligand that induces human dendritic cell secretion of IL-1β” (PLoS ONE, 2017)
# Target: T1, MD-2 (TLR4/MD-2 complex) (Homo sapiens, UniProt Q9Y6Y9)
# T1 construct: gene LY96; MD2 Glu17—Asn160 + 10-His Tag, co-expressed with TLR4 ectodomain Glu24—Lys631 + 10-His Tag; with TLR4 (O00206), ectodomain Glu24—Lys631
# Assay: isothermal titration calorimetry of PA into recombinant human TLR4/MD-2 ([…]°C)
# Assay type: binding
# T1 sequence (Q9Y6Y9 17-160): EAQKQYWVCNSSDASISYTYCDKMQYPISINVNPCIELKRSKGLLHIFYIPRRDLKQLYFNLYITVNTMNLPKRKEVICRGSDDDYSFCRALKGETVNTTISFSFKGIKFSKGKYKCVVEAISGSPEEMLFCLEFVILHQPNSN
# T1 sequence (O00206 24-631 partner): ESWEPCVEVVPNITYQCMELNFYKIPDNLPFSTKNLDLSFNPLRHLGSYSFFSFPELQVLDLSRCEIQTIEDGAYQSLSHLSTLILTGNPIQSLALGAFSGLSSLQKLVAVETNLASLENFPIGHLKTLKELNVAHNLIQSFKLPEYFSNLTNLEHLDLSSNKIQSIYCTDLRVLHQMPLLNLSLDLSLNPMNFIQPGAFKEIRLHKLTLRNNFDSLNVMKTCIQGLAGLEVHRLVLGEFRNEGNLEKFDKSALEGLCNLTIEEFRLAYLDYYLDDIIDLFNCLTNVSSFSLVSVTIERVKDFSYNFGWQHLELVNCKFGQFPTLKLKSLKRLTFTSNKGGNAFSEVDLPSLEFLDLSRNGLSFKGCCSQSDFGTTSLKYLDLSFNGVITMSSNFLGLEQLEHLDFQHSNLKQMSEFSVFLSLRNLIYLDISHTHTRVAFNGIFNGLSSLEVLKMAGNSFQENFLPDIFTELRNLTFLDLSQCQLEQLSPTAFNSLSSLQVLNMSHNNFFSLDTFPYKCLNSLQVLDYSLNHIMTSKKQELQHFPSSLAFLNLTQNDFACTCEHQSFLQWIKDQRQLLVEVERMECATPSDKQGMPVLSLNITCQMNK
smiles,measurement,value
"CCCCCCCCCCCCCCCC(=O)O [PA, palmitic acid]",Kd,2300 nM
